Measured values from publication PMC5967328, “Salvianolic acids from antithrombotic Traditional Chinese Medicine Danshen are antagonists of human P2Y1 and P2Y12 receptors” (Scientific Reports, 2018).
Entries after “also recorded” stand apart in the source; their conditions may differ. Read-outs that look alike come from different tables or passages of the source.

Assays:
[1] = set-up: method as in PMID 21569331; details: rat plasma, cited from earlier work
[2] = target: T1, P2Y12 receptor (Homo sapiens, UniProt Q9H244); assay: Antagonism of 2MeSADP-induced inhibition of forskolin-stimulated cAMP accumulation, Schild analysis; assay type: cell-based; set-up: expressed in transfected cells; host or cells: U2OS cells
Method: The functional antagonism of these three salvianolic acids against the P2Y12 receptor was measured by their effect on agonist-induced inhibition of forskolin-stimulated cyclic AMP accumulation in P2Y12 receptor-expressing U2OS cells. For example, in a concentration-dependent manner, SAA shifted the agonist response curve to the right without affecting its maximum agonist effect (Fig. 2b). This observation is consistent with competitive antagonism, but allosteric antagonism cannot be excluded. Schild analysis of the antagonism yielded KB values of 24.2 ± 5.9, 33.6 ± 6.4 and 23.7 ± 4.5 µM for SAA, SAB and SAC, respectively (Fig. 2c).
U2Os cells expressing the P2Y12 receptor were cultured in DMEM medium containing 10% fetal bovine serum, 100 units/ml penicillin, 100 µg/ml streptomycin and 2 µmol/ml glutamine. For the assay of cAMP accumulation, cells were plated in 96-well plates in 100 µl medium overnight. Cells were then treated with assay buffer containing rolipram ([…]) and antagonists for 20 min followed by the addition of agonists and incubate for 10 min. After 10 min incubation with agonist, Forskolin (10 μM) was added to the mixture and the incubation was continued for another 10 min. The reaction was terminated upon removal of the supernatant and addition of 100 µl Tween-20 (0.3%). Intracellular cAMP levels were measured with an ALPHAScreen cAMP assay kit as instructed by the manufacturer (PerkinElmer). Binding and functional parameters were calculated using Prism 7.0 software (GraphPAD, San Diego, CA, USA). Data were expressed as mean ± sem.

[3] = target: T2, P2Y1 receptor (Homo sapiens, UniProt P47900); assay: Antagonism of 2MeSADP-induced IP-1 accumulation, Schild analysis; assay type: cell-based; set-up: expressed in transfected cells; host or cells: U2OS cells
Method: (§1) Both P2Y1 and P2Y12 receptors play important roles in platelet aggregation. Therefore, we also tested the potential effects of SAA, SAB and SAC on the P2Y1 receptor. […] SAA and SAC antagonized 2MeSADP-induced accumulation of inositol 1-phosphate (IP-1) (Fig. 2e). KB values calculated by Schild analysis for the P2Y1 receptor were 9.1 ± 1.5 and 15.6 ± 2.0 µM for SAA and SAC, respectively (Fig. 2f). Thus, the Schild analysis of the antagonist potencies of SAA and SAC for Gq-coupled P2Y1 and Gi-coupled P2Y12 receptors was consistent with their binding affinities measured in the radioligand assays.
Inositol 1-phosphate (IP-1) was measured using the IP-One Tb HTRF kit (Cisbio Bioassays, Bedford, MA) as described previously[60],[61]. Briefly, after overnight growth, U2Os cells expressing the P2Y1 receptor were first treated with an antagonist for 20 min before the treatment with agonist and incubated for another 60 min. IP-1 detection reagents were added as instructed by the manual from the manufacturer. The assay plates were read on a Mithras LB940 reader (Berthold Technologies, Oak Ridge, TN) using a time-resolved fluorescence ratio (665/620 nm).

[4] = target: T1, P2Y12 receptor; assay: [3H]2MeSADP radioligand binding at the P2Y12 receptor (U2OS membranes); set-up: expressed in transfected cells; host or cells: U2OS cells (membrane preparation)
Method: The eleven selected components were further examined in radioligand binding and functional assays. We initially tested the eleven compounds by measuring the inhibition of [^3H]2-methylthioadenosine 5′-diphosphate (2MeSADP) binding at the human P2Y12 receptor (Fig. 1b).
(§2) U2Os cells expressing the P2Y1 or P2Y12 receptors were cultured in DMEM supplemented with 10% fetal bovine serum, 100 Units/ml penicillin, 100 µg/ml streptomycin and 2 µmol/ml glutamine. After reaching confluence, cells were detached from plates by scraping into PBS and centrifuged at 250 g for 5 min. The resulting pellets were re-suspended in ice-cold Tris-HCl buffer (50 mM, pH 7.4) and homogenized. After homogenization and suspension, cells were centrifuged at 1000 g for 10 min and the pellet was discarded. The suspension was re-centrifuged at 20,000 g for 60 min at 4 °C. The pellets were re-suspended, split into aliquots and stored at −80 °C. The protein concentration was measured using the Bradford assay. For P2Y1 and P2Y12 receptor binding assays, saturation curves were measured by addition of various concentrations of 50 µl [^3H]2MeSADP (specific activity, 7.5 Ci/mmol; Movarek Biochemicals, Brea, CA) and 100 μl of membrane suspension to a total of 200 μl of total assay volume. Non-specific binding was determined using 10 µM MRS2500 (Tocris; St. Louis, MO) for the P2Y1 receptor and 10 μM SAR216471 (Tocris; St. Louis, MO) for the P2Y12 receptor. For the displacement assay, various concentrations of inhibitors were incubated with [^3H]2MeSADP (1.0 nM for P2Y1; 0.4 nM for P2Y12) and membrane preparations (20 µg/sample) at 25 °C for 60 min. The separation of bound from free radioligand was accomplished by rapid vacuum filtration of the incubation mixture over GF/B filter using a Brandel cell harvester (Brandel Inc., Gaithersburg, MD). Filters were washed two times with 3 ml of ice-cold Tris-HCl buffer, pH 7.5. Radioactivity on the filters was quantified using a Tri-carb Liquid Scintillation Counter (PerkinElmer Life and Analytical Sciences). 2MeSADP was purchased from Sigma (St. Louis, MO). All other materials were from standard commercial sources and of analytical grade. For radioligand binding, calculation of apparent binding affinities, Ki = IC50/(1 + [radioligand]/Kd), was performed using the nonlinear iterative curve-fitting program of Prism (GraphPad Software Inc., San Diego, CA).

[5] = target: T2, P2Y1 receptor; assay: [3H]2MeSADP radioligand binding at the P2Y1 receptor (U2OS membranes); set-up: expressed in transfected cells; host or cells: U2OS cells (membrane preparation); details: for IC50: average; for inhibitory effect on [3H]2MeSADP binding to the P2Y1 receptor (initial binding results): in words
Method: as §1, §2
Figure S2. The effects of Tween -20 on the inhibition by SAA (a) and SAC (b) of
[3H]2MeSADP binding to the human P2Y1 recept or. Data are ex pressed Me an ± SD from
2- 3 independent experiments. The average IC50 values of SAA in the absence and
presence of 0.01% Tween- 20 are 21.2 and 19.3 μM, respectivel y. The IC50 values of
SAC in the absence and p resence of 0.01% Tween- 20 are 29.4 and 23.7 μM, respectivel y.
The c ritical micelle concentration (CMC) of Tween -20 is 0.0074%.
(§3) (1 picture or pasted object on this page, not shown here)

[6] = target: T3, α1B adrenergic receptor (Homo sapiens, UniProt P35368); assay: [3H]Prazosin binding assay (PDSP)
T3 construct: Psychoactive Drug Screening Program (PDSP)
T3 sequence (P35368 1-520): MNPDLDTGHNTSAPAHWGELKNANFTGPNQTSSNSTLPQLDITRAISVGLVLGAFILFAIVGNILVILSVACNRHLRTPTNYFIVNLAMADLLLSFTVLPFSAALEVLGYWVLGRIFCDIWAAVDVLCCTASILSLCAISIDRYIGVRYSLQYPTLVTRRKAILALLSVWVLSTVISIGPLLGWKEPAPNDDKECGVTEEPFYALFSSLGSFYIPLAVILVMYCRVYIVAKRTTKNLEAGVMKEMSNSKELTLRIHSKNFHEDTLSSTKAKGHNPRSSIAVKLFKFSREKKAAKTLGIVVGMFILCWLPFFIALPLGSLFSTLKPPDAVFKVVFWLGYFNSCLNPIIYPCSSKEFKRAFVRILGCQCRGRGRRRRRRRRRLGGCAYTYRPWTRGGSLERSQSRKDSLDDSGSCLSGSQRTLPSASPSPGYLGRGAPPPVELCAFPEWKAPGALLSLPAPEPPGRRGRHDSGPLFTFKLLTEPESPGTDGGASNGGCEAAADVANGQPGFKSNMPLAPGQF
Description: We also tested if SAA, SAB and SAC are promiscuously binding compounds, due to the fact that they all have multiple phenolic groups and are thus potentially PAINS[36]. To find other possible targets of the three compounds, we evaluated their potential binding to 45 diverse receptors, transporters and ion channels (human, unless noted) using radioligand binding assays via the Psychoactive Drug Screening Program (PDSP) (Table S1)[37].
Figure S3. Binding activit y of SAB (compound 44297) to the α1B adrenergic receptor was measured b y [ 3H]Prazosin binding assays for three repeats (a-c). Prazosin is an inverse agonist of the α1B adrenergic receptor. Th e av erage Ki o f SAB was determined […]
as §3

[7] = target: T4, adrenergic α1B receptor (Homo sapiens, UniProt P35368); assay: FLIPR agonist and antagonist assays; assay type: cell-based
T4 construct: expressed in transfected cells
T4 sequence (P35368 1-520): T3 sequence (P35368 1-520)
Method: For agonist assay: cell line expressing target receptor was seeded in a 384-well black-wall, clear-bottom plate about 18 hours prior to the day of experiment and maintained at 37 °C/5% CO2. Then, 20 μl of dye-loading solution was added into the wells and the plates were subsequently placed into a 37 °C incubator for 60 min, followed by a 15 min incubation at room temperature. At last, 10 μl of compounds or control agonist were added into respective wells of the assay plate during reading in FLIPR.
For antagonist assay: cell line expressing target receptor was seeded in a 384-well black-wall, clear-bottom plate about 18 hours prior to the day of experiment and maintained at 37 °C/5% CO2. Then the dye-loading solution and 10 μl of control antagonist and test samples were added into respectively wells in sequence. The plates were subsequently placed into a 37 °C incubator for 60 min, followed by a 15 min incubation at room temperature. At last, 12.5 μl of control agonist were added into respective wells of the assay plate during reading in FLIPR.
The fun ctional activit y of SAB on the adrener gi c α1B re ceptor we re tested b y […]

T2 sequence (P47900 whole entry): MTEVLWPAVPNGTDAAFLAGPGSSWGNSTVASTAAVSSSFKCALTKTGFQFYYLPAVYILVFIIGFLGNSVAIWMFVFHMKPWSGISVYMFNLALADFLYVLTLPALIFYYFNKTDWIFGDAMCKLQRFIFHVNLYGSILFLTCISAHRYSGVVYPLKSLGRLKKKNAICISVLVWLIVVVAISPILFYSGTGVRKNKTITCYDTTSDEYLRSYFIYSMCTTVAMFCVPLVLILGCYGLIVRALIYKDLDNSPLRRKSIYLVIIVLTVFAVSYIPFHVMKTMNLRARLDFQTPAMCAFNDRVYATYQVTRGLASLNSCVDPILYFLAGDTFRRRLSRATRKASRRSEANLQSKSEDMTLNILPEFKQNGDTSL
T1 sequence (Q9H244 whole entry): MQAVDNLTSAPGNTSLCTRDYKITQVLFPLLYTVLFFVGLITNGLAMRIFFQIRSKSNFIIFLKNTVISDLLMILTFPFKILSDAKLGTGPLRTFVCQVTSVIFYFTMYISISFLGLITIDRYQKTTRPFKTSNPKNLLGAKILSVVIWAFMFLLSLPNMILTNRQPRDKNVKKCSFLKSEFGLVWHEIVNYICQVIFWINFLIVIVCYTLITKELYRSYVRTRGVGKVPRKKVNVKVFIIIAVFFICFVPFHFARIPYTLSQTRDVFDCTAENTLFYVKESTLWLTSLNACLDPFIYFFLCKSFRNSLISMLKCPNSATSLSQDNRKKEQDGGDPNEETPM

O=C(/C=C/c1ccc(O)c(O)c1/C=C/c1ccc(O)c(O)c1)O[C@H](Cc1ccc(O)c(O)c1)C(=O)O [SAA, salvianolic acid A]
t1/2 ([1]; 100 mg/kg, p.o.): 3.28 h | Kb [2]: 24.2 ± 5.9 µM | Kb [3]: 9.1 ± 1.5 µM | Ki [4]: 20.3 ± 1.5 µM | inhibition of [3H]2MeSADP binding at the human P2Y12 receptor ([4]; 100 µM compound): significant inhibitory effect | Ki [5]: 14.7 ± 2.4 µM | IC50 ([5]; IC50, inhibition of [3H]2MeSADP binding to human P2Y1 receptor, absence of Tween-20): 21.2 µM | IC50 ([5]; IC50, inhibition of [3H]2MeSADP binding to human P2Y1 receptor, presence of 0.01% Tween-20): 19.3 µM | inhibitory effect on [3H]2MeSADP binding to the P2Y1 receptor (initial binding results) [5]: substantial inhibitory effect

O=C(C=Cc1ccc(O)c2c1C(C(=O)OC(Cc1ccc(O)c(O)c1)C(=O)O)C(c1ccc(O)c(O)c1)O2)OC(Cc1ccc(O)c(O)c1)C(=O)O (stereo not shown) [SAB, salvianolic acid B]
Ki [6]: 6.26 ± 1.46 µM | agonist activity on α1B ([7]; FLIPR agonist assay): did not show agonist activity; also recorded: neither agonist nor antagonist | antagonist activity on α1B ([7]; FLIPR antagonist assay): did not show antagonist activit y; also recorded: neither agonist nor antagonist | t1/2 ([1]; 100 mg/kg, i.v.): about 105 min | t1/2 ([1]; 500 mg/kg, p.o.): 4.13 h | Kb [2]: 33.6 ± 6.4 µM | Ki [4]: 36.4 ± 20.3 µM | inhibition of [3H]2MeSADP binding at the human P2Y12 receptor ([4]; 100 µM compound): significant inhibitory effect | inhibitory effect on [3H]2MeSADP binding to the P2Y1 receptor (initial binding results) [5]: significantly weaker

O=C(/C=C/c1ccc(O)c2oc(-c3ccc(O)c(O)c3)cc12)O[C@H](Cc1ccc(O)c(O)c1)C(=O)O [SAC, salvianolic acid C]
Kb [2]: 23.7 ± 4.5 µM | Kb ([3]; U2OS cells expressing P2Y1, IP-1 accumulation, read-out: KB (Schild analysis), P2Y1 receptor): 15.6 ± 2 µM | inhibition of [3H]2MeSADP binding at the human P2Y12 receptor ([4]; 100 µM compound): significant inhibitory effect | Ki ([4]; full inhibition curves vs [3H]2MeSADP (0.4 nM), read-out: Ki, P2Y12 receptor binding): 15.6 ± 6.5 µM | IC50 ([5]; absence of Tween-20, read-out: IC50, inhibition of [3H]2MeSADP binding to human P2Y1 receptor): 29.4 µM | inhibitory effect on [3H]2MeSADP binding to the P2Y1 receptor (initial binding results) [5]: substantial inhibitory effect | IC50 ([5]; presence of 0.01% Tween-20, read-out: IC50, inhibition of [3H]2MeSADP binding to human P2Y1 receptor): 23.7 µM | Ki ([5]; vs [3H]2MeSADP (1.0 nM), read-out: Ki, P2Y1 receptor binding): 23.3 ± 4.5 µM

O=C(/C=C/c1ccc(O)c(O)c1)O[C@H](Cc1ccc(O)c(O)c1)C(=O)O [rosmarinic acid]
inhibition at 100 µM ([4]; 100 µM compound): 31.6 ± 6.2%

O=C(O)Cc1c(/C=C/C(=O)O[C@H](Cc2ccc(O)c(O)c2)C(=O)O)ccc(O)c1O [salvianolic acid D]
inhibition of [3H]2MeSADP binding at the human P2Y12 receptor ([4]; 100 µM compound): 33.5 ± 8.6%
